# Experimental data taken from patent US20250339461A1 (priority 2024, published 2025).
# Entries after “also recorded” stand apart in the source; their conditions may differ.
# Experiments:
# migraine headache = conditions: human, in vivo
# [1] = human, in vivo
# neuropathic facial pain = tested on: neuropathic facial pain; set-up: species or system human; conditions: in vivo
# nausea = conditions: human, in vivo
molecule,measurement,setting,value
CCCC(CCC)C(=O)O [valproic acid],benefit as prophylactic agent for migraines,migraine headache,without benefit
"CN(C)CCc1c[nH]c2ccc(C[C@H]3COC(=O)N3)cc12 [zolmitriptan nasal spray, zolmitriptan]",benefit for rescue,migraine headache,without benefit
NCC1(CC(=O)O)CCCCC1 [gabapentin],benefit as prophylactic agent for migraines,migraine headache,without benefit
same,"benefit for migraine prophylaxis, history at first visit",migraine headache,no benefit
same,benefit from previous treatment,migraine headache,no benefit
CN(C)CCC=C1c2ccccc2CCc2ccccc21 [amitriptyline],benefit as prophylactic agent for migraines,migraine headache,without benefit
"CNS(=O)(=O)Cc1ccc2[nH]cc(CCN(C)C)c2c1 [sumatriptan tablet, sumatriptan]",benefit for rescue,migraine headache,not helpful; also recorded: partially helpful; also recorded: without benefit
CC(C)Cc1ccc(C(C)C(=O)O)cc1 (centres unmarked) [ibuprofen],benefit from previous treatment,migraine headache,no benefit
Clc1ccc2nsnc2c1NC1=NCCN1 [tizanidine],benefit as prophylactic agent for migraines,migraine headache,without benefit
same,benefit for prophylaxis,migraine headache,partially helpful
C[C@@H]1[C@H](c2ccccc2)C[C@H](NC(=O)c2cnc3c(c2)C[C@@]2(C3)C(=O)Nc3ncccc32)C(=O)N1CC(F)(F)F [Ubrelvy],benefit for rescue,migraine headache,not helpful
CC(C)NCC(O)COc1cccc2ccccc12 (centres unmarked) [propranolol],tolerability,[1],caused dizziness
same,benefit as prophylactic agent for migraines,migraine headache,without benefit
same,benefit from previous treatment,migraine headache,no benefit
C[C@]12C=CC(=O)C=C1CC[C@@H]1[C@@H]2C(=O)C[C@@]2(C)[C@H]1CC[C@]2(O)C(=O)CO [prednisone],benefit as prophylactic agent for migraines,migraine headache,without benefit
NS(=O)(=O)Cc1noc2ccccc12 [zonisamide],benefit as prophylactic agent for migraines,migraine headache,without benefit
O=C(O)Cc1ccccc1Nc1c(Cl)cccc1Cl [diclofenac],benefit for rescue,migraine headache,without benefit
Oc1ccc2c(c1)[C@@]13CCCC[C@@]1(O)[C@@H](C2)N(CC1CCC1)CC3 [butorphanol],benefit for rescue,migraine headache,without benefit
Cc1cc2nc3c(=O)[nH]c(=O)nc-3n(C[C@H](O)[C@H](O)[C@H](O)CO)c2cc1C [riboflavin],effect on frequency of headaches after 4-6 weeks,migraine headache,did not affect the frequency
CCN(CC)CCNC(=O)c1cc(Cl)c(N)cc1OC [metoclopramide],tolerability,[1],intolerant
COC1=C(OC)C(=O)C(C/C=C(\C)CC/C=C(\C)CC/C=C(\C)CC/C=C(\C)CC/C=C(\C)CC/C=C(\C)CC/C=C(\C)CC/C=C(\C)CC/C=C(\C)CCC=C(C)C)=C(C)C1=O [coenzyme Q10],benefit as prophylactic agent for migraines,migraine headache,without benefit
same,benefit for prophylaxis,migraine headache,no benefit
same,effect on frequency of headaches after 4-6 weeks,migraine headache,did not affect the frequency
CC(C)C[C@H](CN)CC(=O)O [pregabalin],benefit as prophylactic agent for migraines,migraine headache,without benefit
same,effect on comorbid neuropathic facial pain,neuropathic facial pain,treated effectively
CN(C)CCc1c[nH]c2ccc(Cn3cncn3)cc12 [rizatriptan],adverse effect when tried for rescue,[1],severe elevation in their blood pressure
same,benefit for rescue,migraine headache,no longer effective
same,share of the time it worked for rescue,migraine headache,approximately 20 % of the time
Cc1nccn1CC1CCc2c(c3ccccc3n2C)C1=O (centres unmarked) [ondansetron],effect on nausea,nausea,at times helpful for nausea
COc1cccc(C2(O)CCCCC2CN(C)C)c1 (centres unmarked) [tramadol],benefit for rescue,migraine headache,partially helpful; also recorded: without benefit
CN1CCC[C@@H]1Cc1c[nH]c2ccc(CCS(=O)(=O)c3ccccc3)cc12 [eletriptan],benefit for rescue,migraine headache,consistently effective
NCC(CC(=O)O)c1ccc(Cl)cc1 (centres unmarked) [baclofen],benefit as prophylactic agent for migraines,migraine headache,without benefit
same,"benefit for migraine prophylaxis, history at first visit",migraine headache,no benefit
same,benefit from previous treatment,migraine headache,no benefit
CC1(C)O[C@@H]2[C@@H](CO[C@@]3(COS(N)(=O)=O)OC(C)(C)O[C@@H]23)O1 [topiramate],tolerability,[1],could not tolerate the side effects
same,benefit as prophylactic agent for migraines,migraine headache,without benefit
same,benefit for migraine prophylaxis,migraine headache,helped some
same,"benefit for migraine prophylaxis, history at first visit",migraine headache,no benefit
same,frequency of severe migraine headaches on treatment,migraine headache,5 to 7 days a week
CCCCc1nc(Cl)c(CO)n1Cc1ccc(-c2ccccc2-c2nn[nH]n2)cc1 [losartan],"benefit for migraine prophylaxis, history at first visit",migraine headache,no benefit
NC(=O)N1c2ccccc2C=Cc2ccccc21 [carbamazepine],benefit as prophylactic agent for migraines,migraine headache,without benefit
CCCCN1CCCCC1C(=O)Nc1c(C)cccc1C (centres unmarked) [bupivacaine],pain after local anesthetic injection along superior nuchal line,migraine headache,substantially improved for two days
"Ajovy: prophylactic agent tried for migraines (antibody, chains of the INN, looked up, V domains shown) VH: EVQLVESGGGLVQPGGSLRLSCAASGFTFSNYWISWVRQAPGKGLEWVAEIRSESDASATHYAEAVKGRFTISRDNAKNSLYLQMNSLRAEDTAVYYCLAYFDYGLAIQNYWGQGTLVTVSS VL: EIVLTQSPATLSLSPGERATLSCKASKRVTTYVSWYQQKPGQAPRLLIYGASNRYLGIPARFSGSGSGTDFTLTISSLEPEDFAVYYCSQSYNYPYTFGQGTKLEIK",benefit as prophylactic agent for migraines,migraine headache,without benefit
"Emgality: prophylactic agent prescribed for chronic migraine (antibody, chains of the INN, looked up, V domains shown) VH: QVQLVQSGAEVKKPGSSVKVSCKASGYTFGNYWMQWVRQAPGQGLEWMGAIYEGTGKTVYIQKFADRVTITADKSTSTAYMELSSLRSEDTAVYYCARLSDYVSGFGYWGQGTTVTVSS VL: DIQMTQSPSSLSASVGDRVTITCRASKDISKYLNWYQQKPGKAPKLLIYYTSGYHSGVPSRFSGSGSGTDFTLTISSLQPEDFATYYCQQGDALPPTFGGGTKVEIK",side effects,[1],caused unwanted side effects
same,benefit as prophylactic agent for migraines,migraine headache,without benefit
same,benefit for migraine prophylaxis,migraine headache,significantly improved
same,"benefit for migraine prophylaxis, history at first visit",migraine headache,had not noticed any obvious benefit
same,"benefit for migraine, subsequent treatment rounds",migraine headache,"reduced the pain somewhat, but had not reduced the frequency or duration"
same,"frequency of headaches with throbbing, light and sound sensitivity",migraine headache,once or twice per week
same,migraine frequency on treatment,migraine headache,2 to 3 days/week
